Results as given in patent US9493461B2, “Tetracyclic heterocycle compounds and methods of use thereof for the treatment of hepatitis C” (priority 2013, dated 2016).

How the values were obtained:
HCV replicon genotype 1a = assay: HCV replicon assay, genotype 1a (cell ELISA for replicon-encoded NS3/4A); assay type: cell-based, hepatitis C virus (HCV); conditions: Hepatitis C virus, 96 h, read-out: 1a IC50 (nM), genotype 1a replicon cells, 96 hours incubation, NS3/4A ELISA readout, % of DMSO control
Summary of the method: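 Stable G418-selected neomycin-resistant HCV replicon cells were plated with serially diluted compound without G418 and incubated 96 h. After washing and lysis, replicon RNA was measured indirectly by cell ELISA for replicon-encoded NS3/4A; IC50 from four-parameter fit relative to DMSO control.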

HCV replicon genotype 1b = assay: HCV replicon assay, genotype 1b (cell ELISA for replicon-encoded NS3/4A); assay type: cell-based, hepatitis C virus (HCV); conditions: Hepatitis C virus, 96 h, read-out: 1b IC50 (nM), genotype 1b replicon cells, 96 hours incubation, NS3/4A ELISA readout, % of DMSO control
Summary of the method: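 Genotype 1b replicon cells (neomycin-selected, G418 removed for assay) incubated 96 h with compound dilution series. Replication measured by cell ELISA for replicon-encoded NS3/4A after lysis; IC50 from four-parameter fit relative to DMSO control.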

SMILES | IC50 (HCV replicon genotype 1a) [nM] | IC50 (HCV replicon genotype 1b) [nM]
CNC(=O)c1c(-c2ccc(F)cc2)oc2cc(N(C)S(C)(=O)=O)c(-c3ccc4nc(Cn5cncn5)n5c6cccc(F)c6cc5c4n3)cc12 [Example 116] | 1.88 | 1.7
CNC(=O)c1c(-c2ccc(F)cc2)oc2cc(N(C)S(C)(=O)=O)c(-c3ccc4[nH]c(=O)n5c6cccc(F)c6cc5c4n3)cc12 [Example 22] | 4.34 | 3.42
CCc1ncc(-c2oc3cc(N(C)S(C)(=O)=O)c(-c4ccc5ncn6c7cccc(F)c7cc6c5n4)cc3c2C(=O)NC)s1 [Example 53, 2-(2-ethylthiazol-5-yl)-5-(11-fluoropyrido[3′,2′:4,5]pyrimido[1,6-a]indol-2-yl)-N-methyl-6-(N-methylmethylsulfonamido)benzofuran-3-carboxamide] | 7.79 | 6.37
CNC(=O)c1c(-c2ccc(F)cc2)oc2cc(N(C)S(C)(=O)=O)c(-c3ccc4nc(CN5CC(OC)C5)n5c6cccc(F)c6cc5c4n3)cc12 [Example 88] | 4.09 | 4.22
CNC(=O)c1c(-c2ccc(F)cc2)oc2nc(N(C)S(C)(=O)=O)c(-c3ccc4nc(CN5CC(F)C5)n5c6cccc(F)c6cc5c4n3)cc12 [Example 38, 5-(11-fluoro-6-((3-fluoroazetidin-1-yl)methyl)pyrido[3′,2′:4,5]pyrimido[1,6-a]indol-2-yl)-2-(4-fluorophenyl)-N-methyl-6-(N-methylmethylsulfonamido)furo[2,3-b]pyridine-3-carboxamide] | 6.38 | 14.7
CNC(=O)c1c(-c2ccc(F)cc2)oc2cc(N(C)S(C)(=O)=O)c(-c3ccc4[nH]c(=O)n5c6ccc(F)cc6cc5c4n3)cc12 [Example 21, 5-(10-fluoro-6-oxo-5,6-dihydropyrido[3′,2′:4,5]pyrimido[1,6-a]indol-2-yl)-2-(4-fluorophenyl)-N-methyl-6-(N-methylmethylsulfonamido)benzofuran-3-carboxamide] | 7.61 | 8.74
CNC(=O)c1c(-c2ccc(F)cc2)oc2cc(N(C)S(C)(=O)=O)c(-c3ccc4nc(CN5CC(F)(F)C5)n5c6cccc(F)c6cc5c4n3)cc12 [Example 80] | 2.65 | 2.46
CNC(=O)c1c(-c2ccc(F)cc2)oc2cc(N(C)S(C)(=O)=O)c(-c3ccc4nc(CN5CC(C(C)(C)O)C5)n5c6cccc(F)c6cc5c4n3)cc12 [Example 97] | 2.98 | 3.49
CNC(=O)c1c(-c2ccc(F)cc2)oc2cc(N(C)S(C)(=O)=O)c(-c3ccc4nc(CC5CC[C@H](OC)C5)n5c6cccc(C#N)c6cc5c4n3)cc12 (stereo partly drawn) [Example 132] | 2.83 | 3.5
CNC(=O)c1c(-c2ccc(F)cc2)oc2cc(N(C)S(C)(=O)=O)c(-c3ccc4nc(CN5CC[C@@H](OC)C5)n5c6cccc(F)c6cc5c4n3)cc12 [Example 100] | 2.6 | 4.46
CNC(=O)c1c(-c2ccc(F)cc2)oc2cc(N(C)S(C)(=O)=O)c(-c3ccc4nc(CN5CC(C)(O)C5)n5c6cccc(F)c6cc5c4n3)cc12 [Example 78] | 2.8 | 3.34
CNC(=O)c1c(-c2ccc(F)cc2)oc2cc(N(C)S(C)(=O)=O)c(-c3ccc4nc(CN5CCC5(C)C)n5c6cccc(F)c6cc5c4n3)cc12 [Example 99] | 3.32 | 5.76
CNC(=O)c1c(-c2ccc(F)cc2)oc2cc(N(C)S(C)(=O)=O)c(-c3ccc4nc(CN5CC(C)C5)n5c6cccc(F)c6cc5c4n3)cc12 [Example 103] | 2.05 | 5.27
CNC(=O)c1c(-c2ccc(OC(F)F)nc2)oc2cc(N(C)S(C)(=O)=O)c(-c3ccc4ncn5c6cccc(F)c6cc5c4n3)cc12 [Example 2] | 2.83 | 6.91
CNC(=O)c1c(-c2ccc(F)cc2)oc2cc(N(C)S(C)(=O)=O)c(-c3ccc4nc(CN5CC[C@H](O)C5)n5c6cccc(F)c6cc5c4n3)cc12 [Example 83] | 1.33 | 1.31
CNC(=O)c1c(-c2ccc(F)cc2)oc2cc(N(C)S(C)(=O)=O)c(-c3ccc4nc(CN5CCN(C)CC5)n5c6cccc(F)c6cc5c4n3)cc12 [Example 108] | 6.08 | 8.48
CNC(=O)c1c(-c2ccc(F)cc2)oc2cc(N(C)S(C)(=O)=O)c(-c3ccc4c(n3)-c3cc5c(F)cccc5n3CN4C)cc12 [Example 67, 5-(11-fluoro-5-methyl-5,6-dihydropyrido[3′,2′:4,5]pyrimido[1,6-a]indol-2-yl)-2-(4-fluorophenyl)-N-methyl-6-(N-methylmethylsulfonamido)benzofuran-3-carboxamide] | 1.56 | 2.72
CNC(=O)c1c(-n2ccccc2=O)oc2cc(N(C)S(C)(=O)=O)c(-c3ccc4ncn5c6cccc(F)c6cc5c4n3)cc12 [Example 11, 5-(11-fluoropyrido[3′,2′:4,5]pyrimido[1,6-a]indol-2-yl)-N-methyl-6-(N-methylmethylsulfonamido)-2-(2-oxopyridin-1(2H)-yl)benzofuran-3-carboxamide] | 2.03 | 2.26

SMILES | IC50 (HCV replicon genotype 1a) [nM] | IC50 (HCV replicon genotype 1b) [nM]
CNC(=O)c1c(-c2ccc(F)cc2)oc2cc(N(C)S(C)(=O)=O)c(-c3ccc4nc(C(C)N5CC(F)C5)n5c6cccc(F)c6cc5c4n3)cc12 (single isomer, unassigned) [Example 39, (R or S)-5-(11-fluoro-6-(1-(3-fluoroazetidin-1-yl)ethyl)pyrido[3′,2′:4,5]pyrimido[1,6-a]indol-2-yl)-2-(4-fluorophenyl)-N-methyl-6-(N-methylmethylsulfonamido)benzofuran-3-carboxamide] | 6.37 | 6.08
CNC(=O)c1c(-c2ccc(F)cc2)oc2cc(N(C)S(C)(=O)=O)c(-c3ccc4nc(CN5CC6CC5CO6)n5c6cccc(F)c6cc5c4n3)cc12 (stereo not drawn) [Example 109] | 8.1 | 11.2
CNC(=O)c1c(-c2ccc(F)cc2F)oc2cc(N(C)S(C)(=O)=O)c(-c3ccc4nc(CN5CCC(F)(F)C5)n5c6cccc(F)c6cc5c4n3)cc12 [Example 46] | 7.76 | 11.3
CNC(=O)c1c(-c2ccc(F)cc2F)oc2cc(N(C)S(C)(=O)=O)c(-c3ccc4nc(CN5CCN(C(C)=O)CC5)n5c6cccc(F)c6cc5c4n3)cc12 [Example 148] | 2.52 | 3.17
CNC(=O)c1c(-c2ccc(C)nc2)oc2cc(N(C)S(C)(=O)=O)c(-c3ccc4ncn5c6cccc(F)c6cc5c4n3)cc12 [Example 5] | 3.7 | 7.4
CNC(=O)c1c(-c2ccc(F)cc2F)oc2cc(N(C)S(C)(=O)=O)c(-c3cc4c(cn3)ncn3c5cccc(F)c5cc43)cc12 [Example 75] | 1.03 | 2.78
CNC(=O)c1c(-n2ccccc2=O)oc2cc(N(C)S(C)(=O)=O)c(-c3ccc4nc(CN5CC(F)C5)n5c6cccc(F)c6cc5c4n3)cc12 [Example 29] | 2.21 | 3.63
CNC(=O)c1c(C(=O)N2CC(F)(F)C2)oc2cc(N(C)S(C)(=O)=O)c(-c3ccc4ncn5c6cccc(F)c6cc5c4n3)cc12 [Example 51] | 39.1 | 32
CNC(=O)c1c(-c2ccc(F)cc2C)oc2cc(N(C)S(C)(=O)=O)c(-c3ccc4ncn5c6cccc(F)c6cc5c4n3)cc12 [Example 6] | 3.2 | 5.08
CNC(=O)c1c(-c2ccc(F)cc2)oc2cc(N(C)S(C)(=O)=O)c(-c3ccc4nc(CN5CCC(F)(F)C5)n5c6cccc(C#N)c6cc5c4n3)cc12 [Example 122] | 2.44 | 3.46
CNC(=O)c1c(-c2ccc(F)cc2)oc2cc(N(C)S(C)(=O)=O)c(-c3ccc4nc(CN5CCC(F)(F)CC5)n5c6cccc(C#N)c6cc5c4n3)cc12 [Example 123] | 6.91 | 5.8
CNC(=O)c1c(-c2ccc(F)cc2)oc2cc(N(C)S(C)(=O)=O)c(-c3ccc4nc(CN5CC(F)(F)C5)n5c6cccc(C#N)c6cc5c4n3)cc12 [Example 124] | 1.89 | 1.76
CNC(=O)c1c(-c2ccc(F)cc2)oc2cc(N(C)S(C)(=O)=O)c(-c3ccc4nc(CN5CC[C@H](F)C5)n5c6cccc(F)c6cc5c4n3)cc12 [Example 86] | 1.99 | 2.66
CNC(=O)c1c(-c2ccc(F)cc2)oc2cc(N(C)S(C)(=O)=O)c(-c3ccc4c(n3)-c3cc5c(F)cccc5n3C(CC(=O)OC)N4)cc12 (stereo not drawn) [Example 71, methyl 2-(11-fluoro-2-(2-(4-fluorophenyl)-3-(methylcarbamoyl)-6-(N-methylmethylsulfonamido)benzofuran-5-yl)-5,6-dihydropyrido[3′,2′:4,5]pyrimido[1,6-a]indol-6-yl)acetate] | 2.98 | 3.44
CNC(=O)c1c(-c2ccc(F)cc2)oc2cc(N(C)S(C)(=O)=O)c(-c3ccc4nc(CN5CC(C)(OC)C5)n5c6cccc(C#N)c6cc5c4n3)cc12 [Example 126] | 2.24 | 2.72
CNC(=O)c1c(-c2ccc(F)cc2)oc2cc(N(C)S(C)(=O)=O)c(-c3ccc4c(n3)-c3cc5c(F)cccc5n3CN4)cc12 [Example 56, 5-(11-fluoro-5,6-dihydropyrido[3′,2′:4,5]pyrimido[1,6-a]indol-2-yl)-2-(4-fluorophenyl)-N-methyl-6-(N-methylmethylsulfonamido)benzofuran-3-carboxamide] | 5.26 | 5.32
CNC(=O)c1c(-c2ccc(F)cc2)oc2cc(N(C)S(C)(=O)=O)c(-c3ccc4nc(CN5CC[C@@H](F)C5)n5c6cccc(F)c6cc5c4n3)cc12 [Example 85] | 1.76 | 2.34
CNC(=O)c1c(-c2ccc(F)cc2)oc2cc(N(C)S(C)(=O)=O)c(-c3ccc4nc(CN5CC(CC(F)(F)F)C5)n5c6cccc(C#N)c6cc5c4n3)cc12 [Example 136] | 6.6 | 10.6
